The source of these data is patent US8273771B2, “Ischemic disorder or disease inhibitors” (Pronas Pharma AB, priority 2007, dated 2012).

SMILES strings stand for the structures.

Format in all cases: in vivo, rat
One series relates to rats with induced SAH. Nature of the series: Cortical blood flow measured with Laser Doppler. The following applies: intracisternal injection. The source says: Subarachnoid hemorrhage was induced by a model originally devised by Svendgaard et al and carefully described by Prunell et al (2003). Male Sprague-Dawley rats (350-400 g) were anaesthetized using 5% halothane (Halocarbon Laboratories, River Edge, N.J.) in N2O/O2 (30:70). The rat was intubated and artificially ventilated with inhalation of 0.5-1.5% halothane in N2O/O2 (70:30) during the surgical procedure. The depth of anaesthesia was carefully monitored and the respiration checked by regularly withdrawing arterial blood samples for blood gas analysis (Radiometer, Copenhagen, Denmark). An electric temperature probe was inserted into the rectum of the rat to record the temperature, which was maintained at 37° C. An arterial catheter to measure blood pressure was placed in the tail artery and a catheter to monitor intracranial pressure (ICP) was placed in the subarachnoid space under the subocciptal membrane. At either side of the skull, 3 mm from the midline and 4 mm anteriorly from the bregma, holes were drilled through the skull bone down to dura mater (without perforation) allowing the placement of two laser-Doppler flow probes to measure cortical CBF. Finally, a 27G blunt canula with side hole was introduced 6.5 mm anterior to bregma in the midline at an angle of 30° to the vertical. […]

A further series relates to 5-HT1B receptor mRNA. Nature of the series: Real-time PCR of receptor mRNA in cerebral arteries after SAH. The following applies: MCA, BA and circle of Willis grouped; SAH rats. As to the method: (§1) To quantify mRNA for the ETA, ETB and 5-HT1B receptors, RT-PCR and real-time detection monitoring the PCR products was employed. Total cellular RNA was extracted from BA, MCA and circle of Willis using the Trizol RNA isolation kit (Invitrogen, USA) following the suppliers instructions. Briefly, the arteries were homogenized in 1 ml of Trizol (Invitrogen, Sweden) by using a TissueLyser (VWR, Sweden). Subsequently 200 μl of chloroform was added and the samples were incubated in room temperature for 3 min, followed by centrifugation at 15000 g for 15 min at 4° C. The supernatant was collected and the organic phase discarded. 200 μl of chloroform was again added to remove all traces of phenol and the samples were centrifuged at 15000 g for 15 at 4° C. The aqueous supernatant was again collected and to precipitate the RNA equal amount of isopropanol was added and the samples incubated overnight at −20° C.
(§2) Subsequently, the RNA was centrifuged at 15000 g for 20 min at 4° C. […] Total RNA was determined using a GeneQuant Pro spectrophotometer measuring absorbance at 260/280 (Amersham Pharmacia Biotech, Uppsala, Sweden).
(§3) Reverse transcription of total RNA to cDNA was carried out using the Gene Amp RNA kit (Perkin-Elmer Applied Biosystems, USA) in a Perkin-Elmer 2400 PCR machine at 42° C. for 90 min and then 72° C. for 10 min. The real-time quantitative PCR was performed with the GeneAmp SYBR Green PCR kit (PE Applied Biosystems) in a Perkin-Elmer real-time PCR machine (GeneAmp 5700 sequence detection system). […] The system automatically monitors the binding of a fluorescent dye to double-strand DNA by real-time detection of the fluorescence during each cycle of PCR amplification. […]
(§4) PCR experiments were performed on BA, MCA and circle of Willis from SAH, SAH treated with raf inhibitor or PKC inhibitor and sham operated rats. Data were analysed with the comparative cycle threshold (CT) method (28). The CT values of EF-1 mRNA were used as a reference to quantify the relative amount of ETA, ETB and 5-HT1B mRNA. […]
(Real-time PCR tracks product formation cycle by cycle.)

In another series the test system is ETA receptor mRNA. Described as above. The following applies: MCA, BA and circle of Willis grouped. As to the method: as §1, §2, §3, §4
The test system of the next series is ETB receptor mRNA. Described as above. The following applies: MCA, BA and circle of Willis grouped; SAH rats. As to the method:
as §1, §2, §3, §4

The test system of a further series is AT2 receptor mRNA. The series is described as above. The note with it: MCA, BA and circle of Willis grouped.

For `Cn1cc(C2=C(c3cn(CCCN)c4ccccc34)C(=O)NC2=O)c2ccccc21` [RO-31-7549], in the series with rats with induced SAH, the “effect of injection alone on cortical blood flow measured with Laser Doppler” value is “no effect”.
As for `Oc1cc(-c2nc(-c3ccccc3)[nH]c2-c2ccncc2)ccc1Cl` [SB386023-b], the “enhanced expression of 5-HT1B receptor mRNA” value in the series with 5-HT1B receptor mRNA is listed as “inhibited”. Further, the “expression of ETA receptor mRNA, difference between sham, SAH and treated SAH” value in the series on ETA receptor mRNA is recorded as “no difference”. Moreover, the “enhanced expression of ETB receptor mRNA” value with ETB receptor mRNA is “inhibited”. Besides, in the series with AT2 receptor mRNA, the “expression of AT2 receptor mRNA, difference between sham, SAH and treated SAH” value is recorded as “no difference”.
